# Assay results from US8063008B2, “Enzymatic production of peracids using perhydrolytic enzymes” (E. I. du Pont de Nemours and Company, priority 2005, dated 2011).
# Values joined by “and” are separate entries in the source; they are usually repeats but may differ in a detail not shown here. Equal values may be shown once.
# Tests used:
# [1] = Protease-catalyzed perhydrolysis of acetamide at pH 6.5 (Example 9); format: biochemical; details: pH 6.5, 500 mM H2O2, 1 mg protease
# Method: (§1) Into a 4-mL glass vial with stir bar was added 1 mg protease (Table 6) in 0.050 mL of 50 mM potassium phosphate buffer (pH 6.5), 0.900 mL of an aqueous mixture containing either a) acetamide (278 mM) in 50 mM potassium phosphate buffer (pH 6.5) or b) diacetamide (278 mM) in 50 mM potassium phosphate buffer (pH 6.5), and 0.052 mL 30% hydrogen peroxide (500 mM final concentration). […] A portion of the filtered reaction samples was diluted 1:10 with dd water and analyzed for hydrogen peroxide, and the remaining portion of the sample was directly analyzed for peracid using the HPLC assay method (Table 10).
# [2] = Protease-catalyzed perhydrolysis of triacetin at pH 4.0 (Example 7); format: biochemical; details: pH 4.0, 500 mM H2O2, 1 mg protease
# Method: as §1, with “sodium acetate/acetic acid” for “potassium phosphate”, “4.0),” for “6.5),”, “triacetin” for “either a) acetamide”, “4.0),” for “6.5) or b) diacetamide (278 mM) in 50 mM potassium phosphate buffer (pH 6.5),”, “8).” for “10).”
# [3] = Protease-catalyzed perhydrolysis of diacetamide at pH 6.5 (Example 9); format: biochemical; details: pH 6.5, 500 mM H2O2, 1 mg protease
# Method: as §1
# [4] = Protease-catalyzed perhydrolysis of acetamide at pH 4.0 (Example 6); format: biochemical; details: pH 4.0, 500 mM H2O2, 1 mg protease
# Method: as §1, with “sodium acetate/acetic acid” for “potassium phosphate”, “4.0),” for “6.5),”, “4.0)” for “6.5)”, “7).” for “10).”
# [5] = Protease-catalyzed perhydrolysis of diacetamide at pH 4.0 (Example 6); format: biochemical; details: pH 4.0, 500 mM H2O2, 1 mg protease
# Method: as §1, with “sodium acetate/acetic acid” for “potassium phosphate”, “4.0),” for “6.5),”, “4.0)” for “6.5)”, “7).” for “10).”
# [6] = Protease-catalyzed perhydrolysis of triacetin at pH 6.5 (Example 8); format: biochemical; details: pH 6.5, 500 mM H2O2, 1 mg protease
# Method: The analytical procedure described by U. Karst et al. (Anal. Chem., 69 (17):3623-3627 (1997)) was employed, as described herein, for analysis of product mixtures containing peracid and hydrogen peroxide. Briefly, the concentration of peracetic acid (PAA) in analyzed samples ranged from 0.025 mM-10 mM, and the concentration of H2O2 ranged from 0.075 mM-3 mM. Reaction mixtures containing peracid and/or hydrogen peroxide were, if necessary prior to analysis, diluted to produce a concentration of peracid or peroxide in these ranges. Into a 4-mL vial was placed 0.100 mL of 20 mM methyl p-tolyl sulfide (MTS) in acetonitrile, 0.300 mL of distilled and deionized water (dd) and 0.100 mL of sample solution (undiluted or diluted with dd water by a factor of up to 1:25 for analysis of peracid), or 0.100 mL of 20 mM MTS in acetonitrile and 0.390 mL of dd water were added to 0.010 mL of a 1:10 dilution of sample solution (for analysis of hydrogen peroxide). After a reaction time of 10 minutes (in the dark, with no stirring), 0.400 mL CH3CN and 0.100 mL of 40-mM triphenylphosphine (TPP) in CH3CN were added to start the second derivatization reaction for detection of peroxide. The solution was left standing in the dark for 30 min to complete the assay reaction. At the end of 30 minutes, 0.100 mL of 10 mM N,N-diethyl-m-toluamide (DEET, HPLC external standard) was added and the resulting solution analyzed by HPLC: Supelco Discovery C8 10-cm column with pre-column, 10-μL injection, UV detection at 225 nm, solvent A: acetonitrile, solvent B: deionized water, 1 mL/min gradient as follows: […]
# Into a 4-mL glass vial with stir bar was added 1 mg protease (Table 6) in 0.050 mL of 50 mM sodium phosphate buffer (pH 6.5), 0.900 mL of an aqueous mixture containing triacetin (278 mM) in 50 mM phosphate buffer (pH 6.5), and 0.052 mL 30% hydrogen peroxide (500 mM final concentration). After stirring for 5 or 30 minutes at 22° C., a 0.250 mL sample was filtered using a 30,000 NMWL filter (Millipore UltraFree-MC) centrifuged for 2 minute at 12,000 RPM. A portion of the filtered reaction samples was diluted 1:10 with dd water and analyzed for hydrogen peroxide, and the remaining portion of the sample was directly analyzed for peracid using the HPLC assay method (Table 9).
# [7] = system: E. coli ATCC 11229; assay: Determination of Minimum Biocidal Concentration (MBC), XTT reduction inhibition (Example 21); format: cell-based; details: for replicate OD (450 nm): replicates 1-8; for Minimum Biocidal Concentration (MBC): E. coli ATCC 11229, 1.35×10^6 CFU/mL, 10 minutes at room temperature, XTT, six-log kill
# Text: The method described by J. Gabrielson, et al. (J. Microbiol. Methods 50: 63-73 (2002)) was employed for determination of the Minimum Biocidal Concentration (MBC) of peracids, or for determination of the MBC of hydrogen peroxide and enzyme substrates. The assay method is based on XTT reduction inhibition, where XTT ((2,3-bis[2-methoxy-4-nitro-5-sulfophenyl]-5-[(phenylamino)carbonyl]-2H-tetrazolium, inner salt, monosodium salt) is a redox dye that indicates microbial respiratory activity by a change in optical density (OD) measured at 490 nm or 450 nm. However, there are a variety of other methods available for testing the activity of disinfectants and antiseptics including, but not limited to viable plate counts, direct microscopic counts, dry weight, turbidity measurements, absorbance, and bioluminescence (see, for example Brock, Semour S., Disinfection, Sterilization, and Preservation, 5th edition, Lippincott Williams & Wilkins, Philadelphia, Pa., USA; 2001).
# The filtered enzyme-generated product mixture was diluted 1:5 with sterile water, and the resulting solution was further diluted with sterile water in four 1:1 serial dilutions to obtain the concentrations of PAA and hydrogen peroxide listed in Table 22.
# The 1:5 dilution and four serial dilutions were evaluated for biocidal activity by mixing 0.100 mL of the PAA-containing solution with 0.100 mL of an inoculum containing 2.7×10^6 CFU/mL of E. coli ATCC 11229 (American Type Culture Collection, Manassas, Va.) in Millers LB broth diluted with Butterfield Buffer; eight replicates of each mixture were contained in individual wells of a sterile 96-well microtiter plate. After the resulting cell suspensions were allowed to stand for 10 minutes at room temperature, they were tested for viability using the growth indicator XTT (2,3-bis[2-methoxy-4-nitro-5-sulfophenyl]-5-[(phenylamino)carbonyl]-2H-tetrazolium, inner salt, monosodium salt; CAS RN 111072-31-2) according to the method of Gabrielson et al. (J. Microbiol. Methods, 50:63-73 (2002)).
# Separately, the cell inoculum was treated with sterile solutions of triacetin (Table 24) or hydrogen peroxide in 50 mM phosphate buffer (pH 6.5) (Table 25) at the concentrations present in each of the biocide dilutions in Table 23 to determine the MBC for these components of the biocide solution.
compound,measurement,setting,value
Pepsin,"acetamide (250 mM) peracetic acid (ppm), 5 min",[1],81 ppm
same,"acetamide (250 mM) peracetic acid (ppm), 30 min",[1],67 ppm
same,"triacetin (250 mM) peracetic acid (ppm), 5 min",[2],65 ppm
same,"triacetin (250 mM) peracetic acid (ppm), 30 min",[2],44 ppm
same,"diacetamide (250 mM) peracetic acid (ppm), 5 min",[3],259 ppm
same,"diacetamide (250 mM) peracetic acid (ppm), 30 min",[3],198 ppm
same,"acetamide (250 mM) peracetic acid (ppm), 5 min",[4],45 ppm
same,"acetamide (250 mM) peracetic acid (ppm), 30 min",[4],65 ppm
same,"diacetamide (250 mM) peracetic acid (ppm), 5 min",[5],97 ppm
same,"diacetamide (250 mM) peracetic acid (ppm), 30 min",[5],120 ppm
same,"triacetin (250 mM) peracetic acid (ppm), 5 min",[6],111 ppm
same,"triacetin (250 mM) peracetic acid (ppm), 30 min",[6],163 ppm
Bromelain,"acetamide (250 mM) peracetic acid (ppm), 5 min",[1],108 ppm
same,"acetamide (250 mM) peracetic acid (ppm), 30 min",[1],112 ppm
same,"triacetin (250 mM) peracetic acid (ppm), 5 min",[2],83 ppm
same,"triacetin (250 mM) peracetic acid (ppm), 30 min",[2],59 ppm
same,"diacetamide (250 mM) peracetic acid (ppm), 5 min",[3],311 ppm
same,"diacetamide (250 mM) peracetic acid (ppm), 30 min",[3],202 ppm
same,"acetamide (250 mM) peracetic acid (ppm), 5 min",[4],57 ppm
same,"acetamide (250 mM) peracetic acid (ppm), 30 min",[4],63 ppm
same,"diacetamide (250 mM) peracetic acid (ppm), 5 min",[5],92 ppm
same,"diacetamide (250 mM) peracetic acid (ppm), 30 min",[5],130 ppm
same,"triacetin (250 mM) peracetic acid (ppm), 5 min",[6],161 ppm
same,"triacetin (250 mM) peracetic acid (ppm), 30 min",[6],170 ppm
CC(=O)OCC(COC(C)=O)OC(C)=O [triacetin],biocidal effect,[7]; highest concentration examined (5455 ppm),no biocidal effect
same,blank-corrected mean OD,[7]; triacetin 341 ppm,2.156
same,mean replicate OD (450 nm),[7]; triacetin 341 ppm,2.571
same,replicate OD (450 nm),[7]; triacetin 341 ppm,2.568 and 2.563 and 2.601 and 2.58 and 3.148 and 2.408 and 2.507 and 2.189
same,blank-corrected mean OD,[7]; triacetin 682 ppm,1.956
same,mean replicate OD (450 nm),[7]; triacetin 682 ppm,2.371
same,replicate OD (450 nm),[7]; triacetin 682 ppm,2.304 and 2.310 and 2.560 and 2.601 and 2.605 and 2.213 and 2.156 and 2.218
same,blank-corrected mean OD,[7]; triacetin 1364 ppm,1.978
same,mean replicate OD (450 nm),[7]; triacetin 1364 ppm,2.393
same,replicate OD (450 nm),[7]; triacetin 1364 ppm,2.140 and 2.266 and 2.485 and 2.632 and 2.823 and 2.337 and 2.265 and 2.198
same,blank-corrected mean OD,[7]; triacetin 2728 ppm,1.913
same,mean replicate OD (450 nm),[7]; triacetin 2728 ppm,2.328
same,replicate OD (450 nm),[7]; triacetin 2728 ppm,2.273 and 2.167 and 2.358 and 2.454 and 2.663 and 2.280 and 2.208 and 2.222
same,blank-corrected mean OD,[7]; triacetin 5455 ppm,1.835
same,mean replicate OD (450 nm),[7]; triacetin 5455 ppm,2.250
same,replicate OD (450 nm),[7]; triacetin 5455 ppm,2.229 and 2.124 and 2.263 and 2.407 and 2.539 and 2.210 and 2.136 and 2.091
CC(=O)OO [peracetic acid],Minimum Biocidal Concentration (MBC),[7]; listed as PAA,> 2.4 ppm
same,MBC,"[7]; Escherichia coli, ATCC11229, 10 min, read-out: Minimum Biocidal Concentration (MBC), E. coli ATCC 11229, 1.35×10^6 CFU/mL, 10 minutes at room temperature, XTT, six-log kill",2.4 µg/mL
same,blank-corrected mean OD,"[7]; PAA 1.2 ppm, H2O2 40.2 ppm",0.203
same,mean replicate OD (450 nm),"[7]; PAA 1.2 ppm, H2O2 40.2 ppm",0.617
same,replicate OD (450 nm),"[7]; PAA 1.2 ppm, H2O2 40.2 ppm",0.674 and 0.635 and 0.658 and 0.625 and 0.639 and 0.520 and 0.496 and 0.692
same,blank-corrected mean OD,"[7]; PAA 2.4 ppm, H2O2 80.4 ppm",0.007
same,mean replicate OD (450 nm),"[7]; PAA 2.4 ppm, H2O2 80.4 ppm",0.421
same,replicate OD (450 nm),"[7]; PAA 2.4 ppm, H2O2 80.4 ppm",0.400 and 0.397 and 0.403 and 0.401 and 0.409 and 0.407 and 0.543 and 0.406
same,blank-corrected mean OD,"[7]; PAA 4.8 ppm, H2O2 160.8 ppm",−0.005
same,mean replicate OD (450 nm),"[7]; PAA 4.8 ppm, H2O2 160.8 ppm",0.409
same,replicate OD (450 nm),"[7]; PAA 4.8 ppm, H2O2 160.8 ppm",0.393 and 0.388 and 0.399 and 0.398 and 0.404 and 0.401 and 0.471 and 0.418
same,blank-corrected mean OD,"[7]; PAA 9.6 ppm, H2O2 321.6 ppm",−0.009
same,mean replicate OD (450 nm),"[7]; PAA 9.6 ppm, H2O2 321.6 ppm",0.405
same,replicate OD (450 nm),"[7]; PAA 9.6 ppm, H2O2 321.6 ppm",0.398 and 0.392 and 0.395 and 0.404 and 0.409 and 0.394 and 0.422 and 0.427
same,blank-corrected mean OD,"[7]; PAA 19.15 ppm, H2O2 643.1 ppm",−0.029
same,mean replicate OD (450 nm),"[7]; PAA 19.15 ppm, H2O2 643.1 ppm",0.388
same,replicate OD (450 nm),"[7]; PAA 19.15 ppm, H2O2 643.1 ppm",0.383 and 0.379 and 0.387 and 0.381 and 0.382 (2×) and 0.403 (2×)
"CC(=O)OO [Commercially-Available Peracetic Acid, peracetic acid, reference compound]",Minimum Biocidal Concentration (MBC),[7]; listed as commercial source of peracetic acid,> 2.3 ppm
same,blank-corrected mean OD,[7]; commercial PAA 1.15 ppm,1.138
same,mean replicate OD (450 nm),[7]; commercial PAA 1.15 ppm,1.410
same,replicate OD (450 nm),[7]; commercial PAA 1.15 ppm,1.343 and 1.377 and 1.368 and 1.378 and 1.324 and 1.386 and 1.734 and 1.367
same,blank-corrected mean OD,[7]; commercial PAA 2.3 ppm,0.026
same,mean replicate OD (450 nm),[7]; commercial PAA 2.3 ppm,0.298
same,replicate OD (450 nm),[7]; commercial PAA 2.3 ppm,0.292 (2×) and 0.291 and 0.294 and 0.303 (2×) and 0.318 and 0.288
same,blank-corrected mean OD,[7]; commercial PAA 4.7 ppm,0.027
same,mean replicate OD (450 nm),[7]; commercial PAA 4.7 ppm,0.298
same,replicate OD (450 nm),[7]; commercial PAA 4.7 ppm,0.294 (2×) and 0.295 and 0.298 and 0.293 and 0.304 and 0.310 and 0.297
same,blank-corrected mean OD,[7]; commercial PAA 9.4 ppm,0.024
same,mean replicate OD (450 nm),[7]; commercial PAA 9.4 ppm,0.295
same,replicate OD (450 nm),[7]; commercial PAA 9.4 ppm,0.290 and 0.294 (2×) and 0.291 and 0.299 and 0.295 and 0.301 and 0.296
same,blank-corrected mean OD,[7]; commercial PAA 18.75 ppm,0.024
same,mean replicate OD (450 nm),[7]; commercial PAA 18.75 ppm,0.295
same,replicate OD (450 nm),[7]; commercial PAA 18.75 ppm,0.289 and 0.288 and 0.296 (2×) and 0.294 and 0.300 and 0.306 and 0.292
